Experimental data taken from patent US5457030A, “Method and composition for determining antimicrobial susceptibility of the majority clinically significant Gram postitive organism” (MicroScan, Inc., priority 1993, dated 1995).
Converted amounts (≈) assume the structure as drawn. Like-named read-outs stand apart in the source and are kept apart here.

Experiments:
[1] = Redissolution of fluorogenic substrate after dehydration; format: physicochemical
Excerpt: In the Sensititre™ procedure the substrates mixture consists of alanyl-7-amido-4-methylcoumarin, 4-methylumebelliferyl phosphate and 4-methylumbelliferyl nonanoate. […] Moreover, a special procedure of drying the substrate mixture on a solid carrier in combination with an emulsifying agent was the preferred method in the EP #0,09187 description. Removal of this compound from the mixture allows easy preparation and aliquoting of the fluorogenic substrate mixture. […] The current fluorogenic substrate mixture also allows for testing of a larger range of Gram positive species than previously described. Additionally, the use of the autoSCAN®-W/A allows monitoring of growth for between 31/2 and 15 hours, determination of minimum inhibitory concentration occurring only when sufficient growth has been achieved. This ensures that the minimum inhibitory concentration determinations of each isolate is determined at the optimal time.

Enterococcus faecalis [2] = assay: Percent fluorescence (growth) in wells containing antimicrobial agents, Example 1 (Table 6); format: cell-based; settings: Enterococcus faecalis; for activity at 0.25 µg/mL: .25 μg/mL; for activity at 32 µg/mL: 32 μg/mL
Procedure: (§1) A primary inoculum suspension of a bacterial isolate in saline-pluronic, equivalent to a 0.5 McFarland turbidity standard is prepared. The final inoculum suspension is prepared by diluting a 0.3 ml aliquot of the primary suspension in 25 ml of Rapid Pos Inoculum Broth (B1015-14, Baxter Diagnostics Inc., MicroScan Division, West Sacramento, Calif.). A 115 μl of the final inoculum is added to the growth compartment which contains dried material of fluorogenic enzyme substrates equivalent to 0.023 mM leucine-7-amido-4-methylcoumarin, 0.012 mM phenylalanine-7-amido-4-methylcoumarin and 0.058 mM methylumbelliferyl phosphate and 1.15 mM HEPES buffer at pH 7.0. The final inoculum is also added to a number of compartments containing dried material identical to that in the growth well and different concentrations of an antimicrobial agent. An aliquot of the final inoculum is also added to a compartment, containing only dried HEPES buffer, acting as a control. The inoculated multicompartment device (panel) is inserted in the autoSCAN®-W/A. The fluorescence of each compartment is measured at predetermined times and a Growth Index is calculated by dividing the fluorescence of the growth compartment by that of the negative control compartment.
^FL growth - ^FL control
(§2) If the value of the Growth Index is equal to or exceeds a specified value, the Minimum Inhibitory Concentration for every antimicrobial agent present in the multicompartment device is calculated. Otherwise the device is returned to its position and measured again at the next read time. The read times in this example are 3.5, 4.5, 5.5, 7.0, 8.0, 11.0, and 15.0 hours. For calculation of minimum inhibitory concentration, the percent fluorescence of compartments containing the different concentrations of the antimicrobial agent is calculated by subtracting from each compartment the fluorescence of the control well and dividing it by the delta fluorescence of the growth compartment, obtained by subtracting the fluorescence of the negative control compartment from the fluorescence of the growth compartment. The minimum inhibitory concentration is calculated using a mathematical model specific for each concentration range of the antimicrobial agent. Using a mathematical model based on discriminate functional analysis, the minimum inhibitory concentration of each antimicrobial agent, for the organism tested, can be determined. Utilization of a discriminate function analysis model in microbiological pattern recognition is described in S. Bascomb, Computers in Taxonomy and Systematics, p. 65-102 In T. N. Bryant and J. W. T. Wimpenny (Ed.), Computers in Microbiology, a Practical Approach (IRL Press, Oxford). In an alternative embodiment the minimum inhibitory concentration for each antimicrobial agent for the organism tested can be determined by a breakpoint or threshold method or linear regression analysis. J. McKie, et al., Antimicrobial Agents and Chemotherapy (1980) v. 17, 813-823.
(§3) In Example 1, the growth of Enterococcus faecalis in wells containing specified amounts of antimicrobial agents is estimated by measurement of fluorescence. In Table 6, the percent fluorescence at different concentrations of antimicrobial agents is reported. For example, 0.12, 0.25, 0.5, 1, 2, 4 and 8 μg/mL of ampicillin (Am) were present in the microdilution wells.
The numbers 105, 105, 67, 7, 6, 5, 6 are percent fluorescence values as calculated in […]. These figures are used to determine susceptibility according to the methods discussed on pages 12 and 13.

Enterococcus faecalis [3] = assay: Minimum inhibitory concentration determination, Example 1 (Table 7); format: cell-based
Procedure: as §1, §2, §3
In Table 7, the minimum inhibitory concentration for Example 1 are reported.

[4] = 1 μg/mL, read-out: percent fluorescence
[5] = 2 μg/mL, read-out: percent fluorescence
[6] = 4 μg/mL, read-out: percent fluorescence
[7] = 8 μg/mL, read-out: percent fluorescence
[8] = Enterococcus faecalis, Table 7, Example 1, read-out: concentration at which organism was found to be susceptible
[9] = Table 7, Enterococcus faecalis, Example 1, read-out: minimum inhibitory concentration
[10] = 16 μg/mL, read-out: percent fluorescence
[11] = Enterococcus faecalis, Table 7, Example 1, read-out: concentration at which organism was found to be resistant
[12] = Enterococcus faecalis, read-out: concentration at which organism was found to be susceptible
[13] = Enterococcus faecalis, read-out: minimum inhibitory concentration

Compound | activity at 2 µg/mL (Enterococcus faecalis [2]; [5]) | activity at 4 µg/mL (Enterococcus faecalis [2]; [6]) | activity at 8 µg/mL (Enterococcus faecalis [2]; [7]) | MIC (Enterococcus faecalis [3]; [9]) | activity at 16 µg/mL (Enterococcus faecalis [2]; [10]) | MIC (Enterococcus faecalis [3]; [11]) | further results
CCCCCCCCC(=O)Oc1ccc2c(C)cc(=O)oc2c1 [4-methylumbelliferyl nonanoate] | – | – | – | – | – | – | redissolution after dehydration [1]: difficult to redissolve evenly after dehydration
CC1(C)S[C@@H]2[C@H](NC(=O)[C@H](N)c3ccccc3)C(=O)N2[C@H]1C(=O)O [Ampicillin] | 6% | 5% | 6% | 0.5 µg/mL (≈ 1.43 µM) | – | – | activity at 1 µg/mL (Enterococcus faecalis [2]; [4]): 7%; activity at 0.12 µg/mL (Enterococcus faecalis [2]; .12 μg/mL, read-out: percent fluorescence): 105%; activity at 0.25 µg/mL (Enterococcus faecalis [2]; read-out: percent fluorescence): 105%; activity at 0.5 µg/mL (Enterococcus faecalis [2]; .5 μg/mL, read-out: percent fluorescence): 67%; MIC (Enterococcus faecalis [3]; [8]): 0.5 µg/mL (≈ 1.43 µM)
Cn1nnnc1SCC1=C(C(=O)O)N2C(=O)[C@@H](NC(=O)[C@H](O)c3ccccc3)[C@H]2SC1 [Cefamandole] | – | – | 104% | > 16 µg/mL | 105% | > 16 µg/mL | –
Cc1nnc(SCC2=C(C(=O)O)N3C(=O)[C@@H](NC(=O)Cn4cnnn4)[C@H]3SC2)s1 [Cefazolin] | 105% | 102% | 104% | > 16 µg/mL | 100% | > 16 µg/mL | –
CO/N=C(\C(=O)N[C@@H]1C(=O)N2C(C(=O)O)=C(COC(C)=O)CS[C@H]12)c1csc(N)n1 [Cefotaxime] | – | 10% | 8% | > 4 µg/mL | 8% | – | activity at 32 µg/mL (Enterococcus faecalis [2]): 7%; MIC (Enterococcus faecalis [3]; [8]): < 4 µg/mL
CO/N=C(\C(=O)N[C@@H]1C(=O)N2C(C(=O)O)=C(CSc3nc(=O)c(=O)[nH]n3C)CS[C@H]12)c1csc(N)n1 [Ceftriaxone] | – | 15% | 9% | – | 8% | – | activity at 32 µg/mL (Enterococcus faecalis [2]): 7%
CO/N=C(\C(=O)N[C@@H]1C(=O)N2C(C(=O)O)=C(COC(N)=O)CS[C@H]12)c1ccco1 [Cefuroxime] | 85% | 39% | 15% | > 16 µg/mL | 10% | > 16 µg/mL | –
CC(=O)OCC1=C(C(=O)O)N2C(=O)[C@@H](NC(=O)Cc3cccs3)[C@H]2SC1 [Cephalothin, Cephalotin] | – | – | – | – | – | – | activity at 8 µg/mL (Enterococcus faecalis [2]; read-out: percent fluorescence): 103%; activity at 16 µg/mL (Enterococcus faecalis [2]; read-out: percent fluorescence): 7%; MIC (Enterococcus faecalis [3]; [12]): 16 µg/mL (≈ 40.4 µM); MIC (Enterococcus faecalis [3]; [13]): 16 µg/mL (≈ 40.4 µM)
O=C(N[C@H](CO)[C@H](O)c1ccc([N+](=O)[O-])cc1)C(Cl)Cl [Chloramphenicol] | – | – | – | – | – | – | activity at 4 µg/mL (Enterococcus faecalis [2]; read-out: percent fluorescence): 9%; activity at 8 µg/mL (Enterococcus faecalis [2]; read-out: percent fluorescence): 6%; activity at 16 µg/mL (Enterococcus faecalis [2]; read-out: percent fluorescence): 4%; MIC (Enterococcus faecalis [3]; [12]): < 4 µg/mL; MIC (Enterococcus faecalis [3]; [13]): < 4 µg/mL
O=C(O)c1cn(C2CC2)c2cc(N3CCNCC3)c(F)cc2c1=O [Ciprofloxacin] | – | – | – | – | – | – | activity at 1 µg/mL (Enterococcus faecalis [2]; read-out: percent fluorescence): 6%; activity at 2 µg/mL (Enterococcus faecalis [2]; read-out: percent fluorescence): 6%; activity at 4 µg/mL (Enterococcus faecalis [2]; read-out: percent fluorescence): 6%; MIC (Enterococcus faecalis [3]; [12]): < 1 µg/mL; MIC (Enterococcus faecalis [3]; [13]): < 1 µg/mL
CCC[C@@H]1C[C@@H](C(=O)N[C@@H]([C@H]2O[C@H](SC)[C@H](O)[C@@H](O)[C@H]2O)[C@H](C)Cl)N(C)C1 [Clindaimycin, Clindamycin] | 71% | – | – | > 2 µg/mL | – | > 2 µg/mL | activity at 1 µg/mL (Enterococcus faecalis [2]; [4]): 75%; activity at 5 µg/mL (Enterococcus faecalis [2]; 5 μg/mL (printed 5Cd)): 83%; activity at 0.25 µg/mL (Enterococcus faecalis [2]; read-out: percent fluorescence): 88%
